From patent US20120093947A1, “METHOD OF TREATING REACTIVE AIRWAY DISEASE” (UNITED STATES DEPARTMENT OF VETERANS AFFAIRS, priority 2009, published 2012)

Legend:
MPO = MPO (Homo sapiens, UniProt P05164); assay: Oxidation of β2-agonists by MPO/H2O2, spectrophotometric ΔA315; assay type: biochemical; design: Myeloperoxidase (MPO) from human leucocytes (lyophilized powder); purchased Axxora, LLC (San Diego, Calif.); host or cells: human leucocytes (natural source); conditions: 200 mU/mL MPO
Experimental: (§1) Spectrophotometric Measurements. Spectra are measured using an Agilent diode array spectrophotometer model 8453 (Agilent Technologies, Inc., Santa Clara, Calif.). Oxidation of β2-agonists is studied by measuring absorption spectra at designated time points following reaction starts. Samples are prepared in 50 mM acetate buffer (pH 5.0), 50 and 100 mM phosphate buffers (pH 7.0 and 8.0) and 100 mM Tris/HCl (pH 9.19). All buffers contain DTPA (100 and 200 μM) and measurements are performed at an ambient temperature of 20° C. The reaction is started by the addition of a small aliquot of H2O2 (2, 5 or 10 μL), or glucose oxidase (1 μL), if glucose/glucose oxidase was used to generate H2O2, to a sample containing a studied compound, peroxidase and, if required, an inhibiting co-factor. Time course measurements are carried out following changes in absorbance at 315 nm in 15 second intervals versus absorbance at 800 nm, where none of the compounds absorb. The 315 nm wavelength is chosen because β2-agonists' oxidation products absorb intensely near 315 nm, and because it is close to the absorption maximum of tyrosine dimers.
The concentration of AscH^− in airway fluid was estimated to be near 100 μM (Id.), so we use concentrations within this physiological range. […] AscH^− affects oxidation of salbutamol and fenoterol similarly, causing delay in the net oxidation of both drugs. A315 increases after a lag period, the duration of which depends on AscH^− concentration. Net oxidation of the drugs occurs only when AscH^− is consumed. […] This is understandable given that the concentration of H2O2 was only 50 μM and the peroxide was used to oxidize both the drugs and AscH^−. […] The proposed mechanisms of inhibition are reactions A and B, shown below, which reveal that recovery of the drug occurs at the expense of AscH^−, which is oxidized to the ascorbate radical (A^•−).
[…]. The extent of oxidation is expressed as ΔA315±SE versus control (in %) during 22 minutes of reaction at 20° C. Values are the mean of at least duplicate determinations.

LPO [1] = target: T1, LPO (Bos taurus, UniProt P80025); assay: Oxidation of β2-agonists by LPO/H2O2 (glucose/glucose oxidase), spectrophotometric ΔA315; assay type: biochemical, bovine; conditions: 1 mM glucose/0.2 μg/mL glucose oxidase, pH 7.0, 30 min, % of control; for Amount of metabolite formed ΔA315 (%) Fenoterol: 50 μM fenoterol, 158 nM LPO; for Amount of metabolite formed ΔA315 (%) Salbutamol: 100 μM salbutamol, 216 nM LPO
T1 construct: Lactoperoxidase (LPO) from bovine milk (EC 1.11.1.7); purchased Sigma-Aldrich Co. (St. Louis, Mo.); host or cells: bovine milk (natural source)
Experimental: as §1
In certain experiments, oxidation of β2-agonists by peroxidases is carried out using H2O2 generated by the reaction of glucose (1 mM) with glucose oxidase (0.2 μg/mL). The rate of H2O2 generation in these systems was estimated based on the rate of oxidation of ABTS (1 mM) to the green ABTS radical cation (ABTS^•+) by HRP, at increasing concentrations of the enzyme. Concentrations of glucose and glucose oxidase are the same as those used in experiments with β2-agonists. The plot of the rate of ABTS^•+ oxidation at 420 nm (determined from the linear portion of kinetic runs) versus [HRP] is a curve, which plateaus above a certain threshold value [HRP]. The mean value of the rate from the plateau region (dA420/dt=ε420×d[ABTS^•+]/dt) is taken as the rate at which all H2O2 produced glucose/glucose was immediately used up by the enzyme to oxidize ABTS. Calculations are performed using […] (ABTS^•+ of 3.6×10^4 M^−1 cm^−1) (Childs et al. (1975) Biochem. […].
H2O2 is generated by 1 mM glucose and 0.2 μg/mL glucose oxidase. Oxidation of 50 μM fenoterol and 100 μM salbutamol is carried out in 0.1 M potassium phosphate buffer (pH 7.0) containing 0.1 mM DTPA in the presence of LPO (158 nM LPO for fenoterol and 216 nM for salbutamol). The extent of inhibition is determined by measuring ΔA315 during 30 minutes of reaction and is expressed as % of control (mean±SE from at least two determinations).

LPO [2] = target: T1, LPO; assay: Nitration of salbutamol by LPO/H2O2/NO2−, A410; assay type: biochemical, bovine
Experimental: Spectrophotometric Measurements. Spectra are measured using an Agilent diode array spectrophotometer model 8453 (Agilent Technologies, Inc., Santa Clara, Calif.). Nitration of salbutamol is studied by measuring absorption spectra at designated time points following the start of the reaction. Samples are prepared in 100 mM phosphate buffers (pH 7.0). All buffers contained DTPA (100 μM) or are pretreated with Chelex-100 before use, and measurements are performed at ambient temperature of 20° C. Typically, the reaction is started by the addition of a small aliquot of H2O2 or the desired peroxidase. Time course measurements are carried out following changes in absorbance at 410 nm in 30 second intervals versus absorbance at 800 nm, where none of the compounds absorb.
Ascorbate (AscH^−) is an effective natural antioxidant protecting airways from oxidative injury. Cross et al., (1994) Environ. Health Perspect. 102 (suppl. 10):185-191. Its concentration in the respiratory tract lining fluid is estimated to be near 100 μM (Id.). We examine the effect of AscH^− on nitration of 100 μM salbutamol by 67 nM LPO, 4 mM H2O2, and 3.5 mM of NaNO2 by measuring absorption at 410 nm. […] The duration of the lag period depends on AscH^− concentration. […] See, e.g., Reszka et al. (1999) Free Radic. Biol. & Med. 26:669-678.
As noted earlier, methimazole is an antithyroid drug, an effective inhibitor of LPO activity. 100 μM of salbutamol is reacted with 73 nM LPO, 3.5 mM NaNO2, and 4 mM H2O2 at pH buffer 7.0 in the presence of 0, 27, 55, and 109 μM methimazole (shown in FIG. 9, section A, traces a-d, respectively). Traces c and d also indicate by arrow when additional LPO is added to the system. […] In contrast to effects exerted by AscH^− or SCN^−, methimazole-dependent inhibition is permanent and is probably due to inactivation of the enzyme, since a second dose of LPO reactivates the process (FIG. 9, section A, trace c).
Dapsone, an anti-inflammatory and anti-leprotic agent, is a potent inhibitor of LPO and MPO. See, e.g., Kettle et al. (1991) Biochem. Pharmacol. 41(10):1485-1492; Bozeman et al. (1992) Biochem. Pharmacol. 44(2):553-563. 97 μM of salbutamol is reacted with 65 nM LPO, 3.4 mM NaNO2, and 4 mM H2O2 at pH buffer 7.0 in the presence of 0, 2.5, 5, 10, 50, and 100 μM dapsone (shown in FIG. 10, traces a-f, respectively). The arrows in traces d and e of FIG. 10 indicate where additional LPO is added to the system. […] Dapsone at 50 μM inhibited nitration by approximately 86%. Given the high concentrations of NaNO2 and H2O2 used in this system, dapsone appears to be a potent blocker of nitration.
The extent of nitration is expressed as a change in ΔA410 versus control (dapsone omitted) taken as 100% after 10, 30, and 60 minute reactions for LPO, MPO, and EPO nitrating systems, respectively. Results equal the means±SE of at least two measurements. In the LPO system, 100 μM of salbutamol, 3.4 mM of NaNO2, 4 mM of H2O2, and 65 nM of LPO is used. In the MPO system, 50 μM of salbutamol, 5.0 mM of NaNO2, 5 mM of H2O2, and 0.2 U/mL of MPO is used. In the EPO system, 50 μM of salbutamol, 5 mM of NaNO2, 2 mM of H2O2, and 0.075 U/mL of EPO is used. All reactions were carried out in pH 7.0 phosphate buffer containing DMSO (5% v/v). The term “nitrophenols” includes nitrosalbutamol (N-Sal) and salbutamol-derived nitrophenol (N—ArOH).

[3] = inhibitor 0.1 mM, listed as L-methionine
[4] = inhibitor 1 mM, listed as azide
[5] = inhibitor 0.1 mM, listed as thiocyanate

Chain of MPO (P05164 279-745 limits assumed): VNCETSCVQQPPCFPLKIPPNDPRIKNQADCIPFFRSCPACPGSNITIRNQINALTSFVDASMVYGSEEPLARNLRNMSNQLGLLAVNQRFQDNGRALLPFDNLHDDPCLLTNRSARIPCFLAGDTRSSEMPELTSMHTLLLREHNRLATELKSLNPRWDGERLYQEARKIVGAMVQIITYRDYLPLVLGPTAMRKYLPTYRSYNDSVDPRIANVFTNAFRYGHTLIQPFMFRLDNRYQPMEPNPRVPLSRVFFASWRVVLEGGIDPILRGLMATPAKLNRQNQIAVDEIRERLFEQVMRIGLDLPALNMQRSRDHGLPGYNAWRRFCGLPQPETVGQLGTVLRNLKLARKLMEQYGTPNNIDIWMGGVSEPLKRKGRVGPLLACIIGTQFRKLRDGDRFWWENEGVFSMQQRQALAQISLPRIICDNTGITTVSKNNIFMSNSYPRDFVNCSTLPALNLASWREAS
Chain of MPO (P05164 165-273 limits assumed): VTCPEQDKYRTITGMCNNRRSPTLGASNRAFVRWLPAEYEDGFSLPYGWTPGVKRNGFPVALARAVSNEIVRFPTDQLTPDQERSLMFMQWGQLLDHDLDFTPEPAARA

N[C@@H](CCC(=O)N[C@@H](CS)C(=O)NCC(=O)O)C(=O)O [GSH, glutathione]
ΔA315 (%) Fenoterol, extent of oxidation versus control (MPO; 100 μM fenoterol, 50 μM H2O2, pH 7.0, 30 min, co-factor 0.1 mM): 43.3 ± 14.5% | ΔA315 (%) Salbutamol, extent of oxidation versus control (MPO; 100 μM salbutamol, 50 μM H2O2, pH 7.0, 30 min, co-factor 0.1 mM): 62.0 ± 17.3%

CSCC[C@H](N)C(=O)O [Methionine, L-methionine]
Amount of metabolite formed ΔA315 (%) Fenoterol (LPO [1]; inhibitor 0.1 mM): 103.7 ± 2.0% | Amount of metabolite formed ΔA315 (%) Fenoterol (LPO [1]; [3]): inactive | Amount of metabolite formed ΔA315 (%) Fenoterol (LPO [1]; inhibitor 2 mM): 95.0 ± 3.5% | Amount of metabolite formed ΔA315 (%) Salbutamol (LPO [1]; inhibitor 0.1 mM): 105.5 ± 16.2% | Amount of metabolite formed ΔA315 (%) Salbutamol (LPO [1]; [3]): inactive

[N-]=[N+]=[N-].[Na+] [NaN3]
ΔA315 (%) Fenoterol, extent of oxidation versus control (MPO; 1 mM fenoterol, 50 μM H2O2, pH 7.0, 22 min, 20° C., co-factor 1 mM): 17.9 ± 4.2% | ΔA315 (%) Salbutamol, extent of oxidation versus control (MPO; 1 mM salbutamol, 50 μM H2O2, pH 7.0, 22 min, 20° C., co-factor 1 mM): 6.6 ± 1.3% | Amount of metabolite formed ΔA315 (%) Fenoterol (LPO [1]; inhibitor 1 mM): 45.5 ± 3.9% | Amount of metabolite formed ΔA315 (%) Fenoterol (LPO [1]; [4]): strongly inhibited | Amount of metabolite formed ΔA315 (%) Salbutamol (LPO [1]; inhibitor 1 mM): 17.4 ± 7.1% | Amount of metabolite formed ΔA315 (%) Salbutamol (LPO [1]; [4]): strongly inhibited

N#C[S-].[Na+] [NaSCN]
Amount of metabolite formed ΔA315 (%) Fenoterol (LPO [1]; inhibitor 0.1 mM): 22.8 ± 3.8% | Amount of metabolite formed ΔA315 (%) Fenoterol (LPO [1]; [5]): markedly inhibit | Amount of metabolite formed ΔA315 (%) Salbutamol (LPO [1]; inhibitor 0.1 mM): 5.5 ± 7.3% | Amount of metabolite formed ΔA315 (%) Salbutamol (LPO [1]; [5]): markedly inhibit | Nitration of salbutamol by LPO/H2O2/NO2− (A410 versus time) (LPO [2]; 50 μM NaSCN): completely prevented | Nitration of salbutamol by LPO/H2O2/NO2− (A410 versus time) (LPO [2]; [NaSCN] <50 μM (10, 25 μM)): only transiently

B1: Catalase: catalase from bovine liver (EC 1.11.1.6; 2,350 U/mg) (protein, UniProt P00432 2-527, looked up)
Catalase: ADNRDPASDQMKHWKEQRAAQKPDVLTTGGGNPVGDKLNSLTVGPRGPLLVQDVVFTDEMAHFDRERIPERVVHAKGAGAFGYFEVTHDITRYSKAKVFEHIGKRTPIAVRFSTVAGESGSADTVRDPRGFAVKFYTEDGNWDLVGNNTPIFFIRDALLFPSFIHSQKRNPQTHLKDPDMVWDFWSLRPESLHQVSFLFSDRGIPDGHRHMNGYGSHTFKLVNANGEAVYCKFHYKTDQGIKNLSVEDAARLAHEDPDYGLRDLFNAIATGNYPSWTLYIQVMTFSEAEIFPFNPFDLTKVWPHGDYPLIPVGKLVLNRNPVNYFAEVEQLAFDPSNMPPGIEPSPDKMLQGRLFAYPDTHRHRLGPNYLQIPVNCPYRARVANYQRDGPMCMMDNQGGAPNYYPNSFSAPEHQPSALEHRTHFSGDVQRFNSANDDNVTQVRTFYLKVLNEEQRKRLCENIAGHLKDAQLFIQKKAVKNFSDVHPEYGSRIQALLDKYNEEKPKNAVHTYVQHGSHLSAREKANL
ΔA315 (%) Fenoterol, extent of oxidation versus control (MPO; 1 mM fenoterol, 50 μM H2O2, pH 7.0, 22 min, 20° C., co-factor 235 U/mL): 0.0% | ΔA315 (%) Salbutamol, extent of oxidation versus control (MPO; 1 mM salbutamol, 50 μM H2O2, pH 7.0, 22 min, 20° C., co-factor 235 U/mL): 0.0%
